From patent US20040142994A1, “Azolylcarbynol derivatives of aryl (or heteroaryl) for the treatment of respiratory diseases” (priority 2001, published 2004)

Columns and labels:
[1] = tested on: cough induced by citric acid aerosol; test: Antitussive activity against cough induced by citric acid aerosol in guinea-pig; format: in vivo; conditions: ip; for N° of Coughs ± SEM: 30 min before citric acid aerosol (7.5% p/v), 12.5 min observation, N=10; for SD-50: antitussive activity, citric acid aerosol
Text: (§1) To do this, the antitussive activity has been studied in guinea-pigs, simultaneously studying the possible sedative effects at the doses used in this study. The method used was the one described by Boura [Boura A L A, Green A F, Saunders I A (1970), An antitussive test using guinea-pigs. Br. J. Pharmacol., 39, 225P], con modificaciones más recientes [Adcock J J, Schneider C, Smith T W (1988), Effects of codeine, morphine a novel opioid pentapeptide BW443C, on cough, nociception and ventilation in the unanaesthetized guinea-pig. Br. J. Pharmacol., 93:93-100; Clay T P, Thompson M A (1985), Irritant induced cough as a model of intrapulmonary airway reactivity. Lung, 163:183-191; Forsberg K, Karlsson J-A, Theodorsson E; Lundberg J M; Persson C G A (1988), Cough and bronchoconstriction mediated by capsaicin-sensitive sensory neurons in the guinea-pig. Pulm Pharmacol, 1: 33-39; Gallico L, Borghi A, Dalla Rosa C, Ceserani R, Tognella S (1994), Moguisteine: a novel peripheral non-narcotic antitussive drug. Br. J. Pharmacol,112:795-800].
The guinea-pigs (250-400 g) were deprived of water and food 30 minutes before any intervention. The guinea-pigs, neither ligated nor anaesthetised, were individually placed in a perspex box (20×12×14 cm.) and left for an accommodation period of 15 minutes. After this period, the animals were exposed to an aerosol of an aqueous solution of citric acid (7.5% p/v, 0.39M). This concentration of citric acid is the minimum concentration capable of producing the maximum number of coughs during the observation period (Forsberg et al., 1988). The aerosol was generated for 2.5 minutes using an ultrasound nebulizer (De Vilbiss, Ultraneb 99; mean particle size 0.9 μm, with a flow of 0.5 ml/min.). The observation period with the animals exposed to the nebulized citric acid in the box was 12.5 minutes (2.5 minutes of aerosol production, followed by an additional 10 minutes). During this period, the animals were observed continuously, the number of coughs was counted and the baseline value was taken as control. Only the guinea-pigs that coughed between 15 and 30 times during the observation period were selected for the study. On the day after the selection the animals were randomly treated with the vehicle or with the study product thirty minutes before being exposed again to the citric acid aerosol. The antitussive activity was assessed for each guinea-pig as the reduction in the number of coughs compared to their previously recorded values. On the other hand, the animals were observed from the time of administration of the product until the end of the experiment for possible sedative effects.

[2] = Observation for possible sedative effects in the treated guinea-pigs; format: in vivo, guinea-pig; conditions: ip
Text: as §1, with “Br. J. Pharmacol,112:795-800].” left out
The guinea-pigs (250-400 g) were deprived of water and food 30 minutes before any intervention. […] During this period, the animals were observed continuously, the number of coughs was counted and the baseline value was taken as control. […] The antitussive activity was assessed for each guinea-pig as the reduction in the number of coughs compared to their previously recorded values. […]

## CN(C)CCOC(c1ccccc1)c1ccnn1C.O=C(O)CC(O)(CC(=O)O)C(=O)O (racemic) [Product, (±)-5-{α-[2-(dimethylamine)ethoxy]benzyl}-1-methyl-1H pirazole citrate]
[1]; 10 mg/kg
  N° of Coughs ± SEM: 8.7 ± 0.7
[1]; 40 mg/kg
  N° of Coughs ± SEM: 4.3 ± 0.5
[1]; 100 mg/kg
  N° of Coughs ± SEM: 2.8 ± 0.4
[1]; 10, 40 and 100 mg/kg
  antitussive activity (in words): good antitussive activity which is perfectly dose-related
[1]; Cavia porcellus, 10 mg/kg, inhibition of coughs
  inhibition at 10 mg/kg: 37%
[1]; Cavia porcellus, 40 mg/kg, inhibition of coughs
  inhibition at 40 mg/kg: 71%
[1]; Cavia porcellus, 100 mg/kg, inhibition of coughs
  inhibition at 100 mg/kg: 80%
[1]
  SD-50: 17.6 mg/kg, ip
[1]; listed as (±)-5-{α-[2(dimethylamine) ethoxy]benzyl}-1-methyl-1H-pirazole citrate
  SD-50: 17.6 mg/kg
[2]; 10, 40 and 100 mg/kg
  sedative effect: does not produce any sedative effect
[2]; maximum dose used 100 mg/kg
  sedative effect: no sedative effect
